Measurements taken from PubChem BioAssay (NCI).
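Cells were grown in 96-well plates and exposed to each compound for 48 hours at five concentrations; endpoints were interpolated linearly between bracketing concentrations, or set to the highest concentration if not reached. At the GI50, growth is halved. Definition used: TGI = concentration required for complete inhibition of growth.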 Where a SMILES comes first, the peptide text is derived from it. The star is where a group is joined. Palmitoyl = CCCCCCCCCCCCCCCC(=O)*

Experiments:
Assay in all cases: NCI-60 cell line screen, 48 h
SR leukemia = test system: SR leukemia
HCT-116 colon = test system: HCT-116 colon
HOP-62 NSCLC = test system: HOP-62 NSCLC
MALME-3M melanoma = test system: MALME-3M melanoma
SW-620 colon = test system: SW-620 colon
KM12 colon = test system: KM12 colon
COLO 205 colon = test system: COLO 205 colon
HCC-2998 colon = test system: HCC-2998 colon
TK-10 renal = test system: TK-10 renal
UACC-257 melanoma = test system: UACC-257 melanoma

## CON(C)c1nc(N(C)OC)nc(N(C)OC)n1
SR leukemia
  TGI: > 10 µM
HCT-116 colon
  TGI: > 10 µM
HOP-62 NSCLC
  TGI: > 10 µM
MALME-3M melanoma
  TGI: > 10 µM
SW-620 colon
  TGI: > 10 µM
KM12 colon
  TGI: > 10 µM
COLO 205 colon
  TGI: > 10 µM
HCC-2998 colon
  TGI: > 10 µM
TK-10 renal
  TGI: > 10 µM

## Nc1nc(O)c2ncn([C@H]3CC[C@@H](CO)O3)c2n1
SR leukemia
  TGI: > 100 µM
HCT-116 colon
  TGI: > 100 µM
HOP-62 NSCLC
  TGI: > 100 µM
MALME-3M melanoma
  TGI: > 100 µM
SW-620 colon
  TGI: > 100 µM
KM12 colon
  TGI: > 100 µM
COLO 205 colon
  TGI: > 100 µM
UACC-257 melanoma
  TGI: > 100 µM
TK-10 renal
  TGI: > 100 µM

## COC(=O)C1=C(OC(=O)/C(=C/c2ccc(Cl)cc2)c2ccc(Cl)cc2)C(C(=O)OC)[C@]2(O)[C@@H](C(=O)OC)[C@H]1C[C@@H](c1ccccc1)[C@@H]2C(=O)OC (some centres undefined)
HCT-116 colon
  TGI: > 100 µM
HOP-62 NSCLC
  TGI: > 100 µM
SW-620 colon
  TGI: > 100 µM
KM12 colon
  TGI: > 100 µM
COLO 205 colon
  TGI: > 100 µM
UACC-257 melanoma
  TGI: > 100 µM
TK-10 renal
  TGI: > 100 µM

## CC(N)Cc1ccc(Cl)c(Cl)c1 (centres undefined)
SR leukemia
  TGI: 48.1 µM
HCT-116 colon
  TGI: > 100 µM
HOP-62 NSCLC
  TGI: > 100 µM
MALME-3M melanoma
  TGI: 35.5 µM
SW-620 colon
  TGI: 51.8 µM
KM12 colon
  TGI: > 100 µM
COLO 205 colon
  TGI: 36.5 µM
HCC-2998 colon
  TGI: 31.2 µM
UACC-257 melanoma
  TGI: 54.9 µM
TK-10 renal
  TGI: > 83 µM

## Cc1c(-c2ccccc2)[nH]c2cc(Cl)ccc2c1=O
SR leukemia
  TGI: > 100 µM
HCT-116 colon
  TGI: > 100 µM
HOP-62 NSCLC
  TGI: 60 µM
MALME-3M melanoma
  TGI: > 100 µM
KM12 colon
  TGI: 18.7 µM
HCC-2998 colon
  TGI: > 100 µM
UACC-257 melanoma
  TGI: > 100 µM
TK-10 renal
  TGI: > 100 µM

## C/C(=N/N=C(\[O-])c1ccncc1)C(F)(F)F.C/C(=N\N=C(/[O-])c1ccncc1)C(F)(F)F.[Ni+2]
HOP-62 NSCLC
  GI50: > 1000 nM
  TGI: > 1 µM
MALME-3M melanoma
  GI50: > 1000 nM
  TGI: > 1 µM
SW-620 colon
  GI50: > 1000 nM
  TGI: > 1 µM
KM12 colon
  GI50: > 1000 nM
  TGI: > 1 µM
COLO 205 colon
  GI50: > 1000 nM
  TGI: > 1 µM
HCC-2998 colon
  GI50: > 1000 nM
  TGI: > 1 µM
UACC-257 melanoma
  GI50: > 1 µM
  TGI: > 1 µM

## COc1cc(C(C)O)c[n+](Cc2ccccc2)c1 (centres undefined)
SR leukemia
  TGI: > 100 µM
HCT-116 colon
  TGI: > 100 µM
HOP-62 NSCLC
  TGI: > 100 µM
MALME-3M melanoma
  TGI: > 100 µM
SW-620 colon
  TGI: > 100 µM
KM12 colon
  TGI: > 100 µM
COLO 205 colon
  TGI: > 100 µM
HCC-2998 colon
  TGI: > 100 µM
UACC-257 melanoma
  TGI: > 100 µM
TK-10 renal
  TGI: > 100 µM

## Nc1[nH]c(=O)nc2c1cnn2C1CCCCO1 (centres undefined)
SR leukemia
  TGI: > 100 µM
HCT-116 colon
  TGI: > 100 µM
MALME-3M melanoma
  TGI: > 100 µM
SW-620 colon
  TGI: > 100 µM
KM12 colon
  TGI: > 100 µM
COLO 205 colon
  TGI: > 100 µM
HCC-2998 colon
  TGI: > 100 µM
UACC-257 melanoma
  TGI: > 100 µM
TK-10 renal
  TGI: > 100 µM

## CC(C)C(C(=O)O)N1C(=O)c2ccccc2C1=O (centres undefined)
HCT-116 colon
  TGI: > 100 µM
HOP-62 NSCLC
  TGI: > 100 µM
MALME-3M melanoma
  TGI: > 100 µM
SW-620 colon
  TGI: > 100 µM
KM12 colon
  TGI: > 100 µM
COLO 205 colon
  TGI: > 100 µM
HCC-2998 colon
  TGI: > 100 µM
UACC-257 melanoma
  TGI: > 100 µM
TK-10 renal
  TGI: > 100 µM

## CCN1CCC(O)(/C=C/c2ccccc2C)C(C(=O)/C=C/c2ccccc2C)C1 (centres undefined)
SR leukemia
  TGI: > 100 µM
HCT-116 colon
  TGI: 3.38 µM
HOP-62 NSCLC
  TGI: 3.74 µM
MALME-3M melanoma
  TGI: 16.3 µM
SW-620 colon
  TGI: 10.1 µM
COLO 205 colon
  TGI: 3.13 µM
HCC-2998 colon
  TGI: 2.61 µM
UACC-257 melanoma
  TGI: 9.31 µM
TK-10 renal
  TGI: 10.1 µM

## CC12C=CC(=O)C=C1CCC1C3CCC(O)(C(=O)CO)C3(C)CC(O)C12F (centres undefined)
SR leukemia
  TGI: > 100 µM
HCT-116 colon
  TGI: > 100 µM
HOP-62 NSCLC
  TGI: > 100 µM
MALME-3M melanoma
  TGI: > 100 µM
SW-620 colon
  TGI: > 100 µM
KM12 colon
  TGI: > 100 µM
COLO 205 colon
  TGI: > 100 µM
HCC-2998 colon
  TGI: > 100 µM
UACC-257 melanoma
  TGI: > 100 µM
TK-10 renal
  TGI: > 100 µM

## CN1C(c2ccccc2)CC(=O)C(N)C1c1ccccc1 (centres undefined)
SR leukemia
  TGI: > 60.2 µM
HCT-116 colon
  TGI: 34.2 µM
HOP-62 NSCLC
  TGI: > 100 µM
MALME-3M melanoma
  TGI: 50 µM
SW-620 colon
  TGI: 57.1 µM
KM12 colon
  TGI: 57.5 µM
COLO 205 colon
  TGI: 32.5 µM
HCC-2998 colon
  TGI: 43.3 µM
UACC-257 melanoma
  TGI: > 87.1 µM
TK-10 renal
  TGI: > 100 µM

## c1ccc(-c2nc(N3CCNCC3)c3oc(-c4ccccc4)nc3n2)cc1
SR leukemia
  GI50: 0.259 µM
  TGI: 0.793 µM
HOP-62 NSCLC
  GI50: 2260 nM
  TGI: 4.81 µM
MALME-3M melanoma
  GI50: 1700 nM
  TGI: 3.17 µM
SW-620 colon
  GI50: 1350 nM
  TGI: 2.94 µM
KM12 colon
  GI50: 1800 nM
  TGI: 3.35 µM
COLO 205 colon
  GI50: 2140 nM
  TGI: 4.88 µM
HCC-2998 colon
  GI50: 1580 nM
  TGI: 3.05 µM

## CCCC1CCC(=C2C(=O)CCC2=O)O1 (centres undefined)
SR leukemia
  TGI: > 100 µM
HCT-116 colon
  TGI: > 100 µM
HOP-62 NSCLC
  TGI: > 100 µM
SW-620 colon
  TGI: > 100 µM
KM12 colon
  TGI: > 100 µM
COLO 205 colon
  TGI: > 100 µM
HCC-2998 colon
  TGI: > 100 µM
UACC-257 melanoma
  TGI: > 100 µM
TK-10 renal
  TGI: > 100 µM

## C=C(C)C1Cc2c(c3ccccc3n(C)c2=O)O1 (centres undefined)
MALME-3M melanoma
  TGI: > 100 µM
SW-620 colon
  TGI: > 100 µM
COLO 205 colon
  TGI: > 100 µM
TK-10 renal
  TGI: > 100 µM

## CCCCCCCCCCCCCCCC(=O)N1CCCC1C(=O)NCC(=O)NC(Cc1ccccc1)C(=O)NC(C)C(=O)NC(CO)C(=O)NC(Cc1ccc(O)cc1)C(=O)NC(CCCCN)C(=O)NC(CC(C)C)C(=O)NC(CCCN=C(N)N)C(=O)N1CCCC1C(=O)NCC(N)=O (centres undefined) (Palmitoyl-PGFASYKLRPG-NH2; configuration not given here)
SR leukemia
  GI50: 12 µM
  TGI: 24.5 µM
HCT-116 colon
  GI50: 12.1 µM
  TGI: 24.9 µM
HOP-62 NSCLC
  GI50: 21100 nM
  TGI: 46 µM
MALME-3M melanoma
  GI50: 18000 nM
  TGI: 47.3 µM
SW-620 colon
  GI50: 37500 nM
  TGI: > 100 µM
KM12 colon
  GI50: 21900 nM
  TGI: 51.4 µM
COLO 205 colon
  GI50: 10900 nM
  TGI: 22.8 µM
HCC-2998 colon
  GI50: 13400 nM
  TGI: 28.9 µM
UACC-257 melanoma
  GI50: 26.4 µM
  TGI: 52.7 µM
TK-10 renal
  GI50: 18.4 µM
  TGI: 41.5 µM

## Cn1c(-c2ccccc2)cc(-c2cccs2)c1-c1cccs1
HCT-116 colon
  TGI: > 100 µM
HOP-62 NSCLC
  TGI: > 100 µM
MALME-3M melanoma
  TGI: > 100 µM
SW-620 colon
  TGI: > 100 µM
KM12 colon
  TGI: > 44.9 µM
COLO 205 colon
  TGI: > 100 µM
HCC-2998 colon
  TGI: > 100 µM
UACC-257 melanoma
  TGI: > 51 µM
